Test results from PubChem BioAssay (NCI).
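96-well plates; 48 h exposure; 5 concentrations. Endpoints by linear interpolation between flanking doses. Not reached: highest tested concentration assigned. Here, GI50 denotes the concentration required for 50% inhibition of growth. TGI marks complete inhibition of growth.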

How the values were obtained:
Assay in all cases: NCI anticancer screen, dose series, 48 h
786-0 renal = tested on: 786-0 renal
A549 NSCLC = tested on: A549 NSCLC
ACHN renal = tested on: ACHN renal
CAKI-1 renal = tested on: CAKI-1 renal
COLO 205 colon = tested on: COLO 205 colon
DU-145 prostate = tested on: DU-145 prostate
HCC-2998 colon = tested on: HCC-2998 colon
HCT-116 colon = tested on: HCT-116 colon
HL-60(TB) leukemia = tested on: HL-60(TB) leukemia
HOP-92 NSCLC = tested on: HOP-92 NSCLC
HT29 colon = tested on: HT29 colon
MALME-3M melanoma = tested on: MALME-3M melanoma
MDA-MB-231 breast = tested on: MDA-MB-231 breast
NCI-H522 lung = tested on: NCI-H522 lung
OVCAR-5 ovarian = tested on: OVCAR-5 ovarian
OVCAR-8 ovarian = tested on: OVCAR-8 ovarian
PC-3 prostate = tested on: PC-3 prostate
SF-295 CNS = tested on: SF-295 CNS
SK-MEL-28 melanoma = tested on: SK-MEL-28 melanoma
SK-MEL-5 melanoma = tested on: SK-MEL-5 melanoma
SK-OV-3 ovarian = tested on: SK-OV-3 ovarian
SN12C renal = tested on: SN12C renal
SNB-75 CNS = tested on: SNB-75 CNS
SR leukemia = tested on: SR leukemia
SW-620 colon = tested on: SW-620 colon
TK-10 renal = tested on: TK-10 renal
UACC-62 melanoma = tested on: UACC-62 melanoma
UO-31 renal = tested on: UO-31 renal
A498 renal = tested on: A498 renal
CCRF-CEM leukemia = tested on: CCRF-CEM leukemia
EKVX NSCLC = tested on: EKVX NSCLC
HCT-15 colon = tested on: HCT-15 colon
HOP-62 NSCLC = tested on: HOP-62 NSCLC
HS 578T breast = tested on: HS 578T breast
IGROV1 ovarian = tested on: IGROV1 ovarian
K-562 leukemia = tested on: K-562 leukemia
KM12 colon = tested on: KM12 colon
M14 melanoma = tested on: M14 melanoma
MCF7 breast = tested on: MCF7 breast
MDA-MB-435 = tested on: MDA-MB-435
MOLT-4 leukemia = tested on: MOLT-4 leukemia
NCI-H226 lung = tested on: NCI-H226 lung
NCI-H23 lung = tested on: NCI-H23 lung
NCI-H460 lung = tested on: NCI-H460 lung
NCI/ADR-RES ovarian = tested on: NCI/ADR-RES ovarian
OVCAR-3 ovarian = tested on: OVCAR-3 ovarian
OVCAR-4 ovarian = tested on: OVCAR-4 ovarian
RPMI-8226 leukemia = tested on: RPMI-8226 leukemia
RXF 393 renal = tested on: RXF 393 renal
SF-268 CNS = tested on: SF-268 CNS
SF-539 CNS = tested on: SF-539 CNS
SK-MEL-2 melanoma = tested on: SK-MEL-2 melanoma
SNB-19 CNS = tested on: SNB-19 CNS
T-47D breast = tested on: T-47D breast
U251 CNS = tested on: U251 CNS
UACC-257 melanoma = tested on: UACC-257 melanoma
BT-549 breast = tested on: BT-549 breast
LOX IMVI melanoma = tested on: LOX IMVI melanoma

OC(c1cc2ccc(C(F)(F)F)cc2c2cc(C(F)(F)F)ccc12)C1CCCCN1 (stereo not drawn)
TGI (786-0 renal): 2.98 µM
TGI (A549 NSCLC): 3.26 µM
TGI (ACHN renal): 2.62 µM
TGI (CAKI-1 renal): 3.13 µM
TGI (COLO 205 colon): 3.05 µM
TGI (DU-145 prostate): 3.21 µM
TGI (HCC-2998 colon): 2.62 µM
TGI (HCT-116 colon): 2.8 µM
TGI (HL-60(TB) leukemia): > 100 µM
TGI (HOP-92 NSCLC): 3.19 µM
TGI (HT29 colon): 3.4 µM
TGI (MALME-3M melanoma): 1.5 µM
TGI (MDA-MB-231 breast): 3.2 µM
TGI (NCI-H522 lung): 3.16 µM
TGI (OVCAR-5 ovarian): 3.18 µM
GI50 (OVCAR-8 ovarian): 1.86 µM
TGI (OVCAR-8 ovarian): 3.74 µM
TGI (PC-3 prostate): 2.92 µM
GI50 (SF-295 CNS): 1.83 µM
TGI (SF-295 CNS): 3.41 µM
TGI (SK-MEL-28 melanoma): 3.36 µM
TGI (SK-MEL-5 melanoma): 2.89 µM
TGI (SK-OV-3 ovarian): 3.82 µM
TGI (SN12C renal): 3.26 µM
TGI (SNB-75 CNS): 2.57 µM
TGI (SR leukemia): 4.99 µM
TGI (SW-620 colon): 2.84 µM
TGI (TK-10 renal): 3.71 µM
TGI (UACC-62 melanoma): 3.49 µM
TGI (UO-31 renal): 2.71 µM

C=Cc1ccccc1C1(O)C=CC(OC)(OC)C=C1
TGI (786-0 renal): 16.4 µM
TGI (A498 renal): 41 µM
TGI (A549 NSCLC): 36.9 µM
TGI (ACHN renal): 39 µM
TGI (CAKI-1 renal): 18.4 µM
TGI (CCRF-CEM leukemia): 8.46 µM
TGI (COLO 205 colon): 25.9 µM
TGI (DU-145 prostate): 68.8 µM
TGI (EKVX NSCLC): 50.5 µM
TGI (HCC-2998 colon): 33.4 µM
TGI (HCT-116 colon): 11.7 µM
TGI (HCT-15 colon): 13.1 µM
TGI (HL-60(TB) leukemia): 6.38 µM
TGI (HOP-62 NSCLC): 19.5 µM
TGI (HS 578T breast): > 100 µM
TGI (HT29 colon): 11.7 µM
TGI (IGROV1 ovarian): 27 µM
TGI (K-562 leukemia): > 100 µM
TGI (KM12 colon): 19.4 µM
TGI (M14 melanoma): 18.5 µM
TGI (MALME-3M melanoma): 27.8 µM
TGI (MCF7 breast): 13.3 µM
TGI (MDA-MB-231 breast): 24.8 µM
TGI (MDA-MB-435): 14 µM
TGI (MOLT-4 leukemia): 10.6 µM
TGI (NCI-H226 lung): 80.9 µM
TGI (NCI-H23 lung): 16.2 µM
TGI (NCI-H460 lung): 21.9 µM
TGI (NCI-H522 lung): 23.9 µM
TGI (NCI/ADR-RES ovarian): 29.4 µM
TGI (OVCAR-3 ovarian): 7.53 µM
TGI (OVCAR-4 ovarian): 37.2 µM
TGI (OVCAR-5 ovarian): 20.2 µM
TGI (OVCAR-8 ovarian): 3.65 µM
TGI (PC-3 prostate): 29.1 µM
TGI (RPMI-8226 leukemia): 45.2 µM
TGI (RXF 393 renal): 14.8 µM
TGI (SF-268 CNS): 33.9 µM
TGI (SF-295 CNS): 32.5 µM
TGI (SF-539 CNS): 6.4 µM
TGI (SK-MEL-2 melanoma): 37.9 µM
TGI (SK-MEL-28 melanoma): 20.8 µM
TGI (SK-MEL-5 melanoma): 26.9 µM
TGI (SK-OV-3 ovarian): 29.3 µM
TGI (SN12C renal): 24.4 µM
TGI (SNB-19 CNS): 30.8 µM
TGI (SNB-75 CNS): 38.7 µM
TGI (SR leukemia): 7.02 µM
TGI (SW-620 colon): 11.5 µM
TGI (T-47D breast): > 100 µM
TGI (TK-10 renal): 10.7 µM
TGI (U251 CNS): 12.7 µM
TGI (UACC-257 melanoma): 24.1 µM
TGI (UACC-62 melanoma): 17.6 µM
TGI (UO-31 renal): 19.8 µM

Cc1ccc(-c2nc3nc(-c4ccc(F)cc4)nc(N4CCCNCC4)c3o2)cc1
GI50 (786-0 renal): 1.83 µM
TGI (786-0 renal): 3.56 µM
GI50 (A498 renal): 1.68 µM
TGI (A498 renal): 3.12 µM
GI50 (ACHN renal): 1.73 µM
TGI (ACHN renal): 3.1 µM
GI50 (BT-549 breast): 1.66 µM
TGI (BT-549 breast): 3.37 µM
GI50 (CAKI-1 renal): 1.44 µM
TGI (CAKI-1 renal): 2.74 µM
GI50 (CCRF-CEM leukemia): 0.293 µM
TGI (CCRF-CEM leukemia): 1.04 µM
GI50 (COLO 205 colon): 2.03 µM
TGI (COLO 205 colon): 4.07 µM
GI50 (DU-145 prostate): 1.68 µM
TGI (DU-145 prostate): 3.11 µM
GI50 (EKVX NSCLC): 1.78 µM
TGI (EKVX NSCLC): 3.34 µM
GI50 (HCC-2998 colon): 1.68 µM
TGI (HCC-2998 colon): 3.37 µM
GI50 (HCT-116 colon): 0.457 µM
TGI (HCT-116 colon): 1.73 µM
GI50 (HCT-15 colon): 1.06 µM
TGI (HCT-15 colon): 2.42 µM
GI50 (HL-60(TB) leukemia): 0.211 µM
TGI (HL-60(TB) leukemia): 0.46 µM
GI50 (HOP-62 NSCLC): 1.74 µM
TGI (HOP-62 NSCLC): 3.51 µM
GI50 (HOP-92 NSCLC): 1.32 µM
TGI (HOP-92 NSCLC): 2.88 µM
GI50 (HS 578T breast): 1.78 µM
TGI (HS 578T breast): 3.69 µM
GI50 (IGROV1 ovarian): 1.59 µM
TGI (IGROV1 ovarian): 3.01 µM
GI50 (K-562 leukemia): 0.225 µM
TGI (K-562 leukemia): 0.539 µM
GI50 (KM12 colon): 1.79 µM
TGI (KM12 colon): 3.42 µM
GI50 (LOX IMVI melanoma): 1.18 µM
TGI (LOX IMVI melanoma): 2.55 µM
GI50 (M14 melanoma): 1.86 µM
TGI (M14 melanoma): 3.56 µM
GI50 (MALME-3M melanoma): 1.71 µM
TGI (MALME-3M melanoma): 3.21 µM
GI50 (MCF7 breast): 1.23 µM
TGI (MCF7 breast): 2.96 µM
GI50 (MDA-MB-231 breast): 1.63 µM
TGI (MDA-MB-231 breast): 3.11 µM
GI50 (MDA-MB-435): 1.71 µM
TGI (MDA-MB-435): 3.13 µM
GI50 (MOLT-4 leukemia): 1.62 µM
TGI (MOLT-4 leukemia): 3.47 µM
GI50 (NCI-H226 lung): 1.96 µM
TGI (NCI-H226 lung): 4.05 µM
GI50 (NCI-H23 lung): 1.82 µM
TGI (NCI-H23 lung): 3.47 µM
GI50 (NCI-H460 lung): 1.79 µM
TGI (NCI-H460 lung): 3.53 µM
GI50 (NCI-H522 lung): 1.65 µM
TGI (NCI-H522 lung): 3.51 µM
GI50 (NCI/ADR-RES ovarian): 1.91 µM
TGI (NCI/ADR-RES ovarian): 3.63 µM
GI50 (OVCAR-3 ovarian): 1.55 µM
TGI (OVCAR-3 ovarian): 2.96 µM
GI50 (OVCAR-4 ovarian): 1.83 µM
TGI (OVCAR-4 ovarian): 3.25 µM
GI50 (OVCAR-5 ovarian): 1.65 µM
TGI (OVCAR-5 ovarian): 3 µM
GI50 (PC-3 prostate): 1.56 µM
TGI (PC-3 prostate): 3.18 µM
GI50 (RPMI-8226 leukemia): 1.85 µM
TGI (RPMI-8226 leukemia): 4.66 µM
GI50 (RXF 393 renal): 1.59 µM
TGI (RXF 393 renal): 3.11 µM
GI50 (SF-268 CNS): 1.73 µM
TGI (SF-268 CNS): 3.44 µM
GI50 (SF-295 CNS): 1.82 µM
TGI (SF-295 CNS): 3.35 µM
GI50 (SF-539 CNS): 1.66 µM
TGI (SF-539 CNS): 3.04 µM
GI50 (SK-MEL-2 melanoma): 1.73 µM
TGI (SK-MEL-2 melanoma): 3.35 µM
GI50 (SK-MEL-28 melanoma): 1.79 µM
TGI (SK-MEL-28 melanoma): 3.23 µM
GI50 (SK-MEL-5 melanoma): 1.75 µM
TGI (SK-MEL-5 melanoma): 3.16 µM
GI50 (SK-OV-3 ovarian): 1.87 µM
TGI (SK-OV-3 ovarian): 3.37 µM
GI50 (SN12C renal): 1.67 µM
TGI (SN12C renal): 3.13 µM
GI50 (SNB-19 CNS): 1.7 µM
TGI (SNB-19 CNS): 3.22 µM
GI50 (SNB-75 CNS): 1.06 µM
TGI (SNB-75 CNS): 2.24 µM
GI50 (SR leukemia): 0.256 µM
TGI (SR leukemia): 0.813 µM
GI50 (SW-620 colon): 0.742 µM
TGI (SW-620 colon): 2.17 µM
GI50 (TK-10 renal): 1.66 µM
TGI (TK-10 renal): 3.09 µM
GI50 (U251 CNS): 1.33 µM
TGI (U251 CNS): 2.83 µM
GI50 (UACC-257 melanoma): 1.89 µM
TGI (UACC-257 melanoma): 3.65 µM
GI50 (UACC-62 melanoma): 1.83 µM
TGI (UACC-62 melanoma): 3.47 µM
GI50 (UO-31 renal): 1.44 µM
TGI (UO-31 renal): 2.79 µM
